# Test: Stability of capsules stored at 50° C. for one week, degradation products by HPLC
# Type: physicochemical
# Details: starting ramipril, before encapsulation and storage
# Method: For each of the 4 examples, the ingredients in the proportions shown were mixed together. The powder mixture was then passed through a #60 screen and mixed again. The powder mixture was then filled into size 4 two-piece hard gelatin capsules as a net fill of 150 mg per capsules, so that each capsule contained 1.25 mg of ramipril. Capsules of each of the examples were stored at 50° C. for one week and then tested by a high-performance liquid chromatographic method (HPLC) to determine the degradation products as a percentage of the ramipril content.
smiles,measurement,value
"CCOC(=O)[C@H](CCc1ccccc1)N[C@@H](C)C(=O)N1[C@H](C(=O)O)C[C@@H]2CCC[C@@H]21 [ramipril, Ramipril]",level of degradation products in the ramipril used to make the capsules,0.29%
